pEC50: −log10 of the molar value. Where two headings read alike, the source gives them in different places.
What was measured:
[1] = target: T1, PRMT5-MEP50 enzyme complex (Homo sapiens, UniProt O14744); experiment: PRMT5-MEP50 Enzyme Methylation Assay; type: biochemical
T1 construct: 1.25 nM of Full-length (FL)-PRMT5-MEP50 enzyme complex; made in house; host or cells: baculovirus-transfected Sf21 cells
Experimental: PRMT5-MEP50 biochemical assay is a direct measurement of the methylation activity of the enzyme complex on a short peptide substrate derived from the N-terminus of H4 histone. Methylation experiment is performed with recombinant PRMT5-MEP50 protein complex. The assessment of inhibitory effect of small molecules is measured by tire effectiveness of the compounds to inhibit tins reaction (EC50).
In this assay, the potency (EC50) of each compound was determined from a twenty-point (1:2 serial dilution; top compound concentration of 100000 nM) titration curve using the following outlined procedure. To each well of a white ProxiPlus 384 well-plate, 100 nL of compound (1% DMSO in final assay volume of 10 μL) was dispensed, followed by the addition of 8 μL of 1× assay buffer (50 mM Bicine pH 8.0, 1 mM DTT, 0.004% Tween20, 0.01% BSA) containing 1.25 nM of Full-length (FL)-PRMT5-MEP50 enzyme complex (recombinant proteins from baculovirus-transfected Sf21 cells: FL-PRMT5; MW=[…] and FL-MEP50; MW=38614) and 1 μL of 150 μM S-(5′-Adenosyl)-L-Methionine Chloride (SAM). Plates were sealed and placed in a 37° C. humidified chamber for a 60 minutes pre-incubation with compound. Subsequently, each reaction was initiated by the addition of 1 μL 1× assay buffer containing 750 nM biotinylated H4R3(Mel) peptide. The final reaction in each well of 10 μL consists of 1.0 nM PRMT5-MEP50, 75 nM biotinylated-peptide, and […] SAM. Methylation reactions were allowed to proceed for 150 minutes in a sealed plate at 37° C. Reactions were immediately quenched by the addition of 1 μL of 5% formic acid. Plates were then frozen and shipped to SAMDITM Tech Inc. to determine the percent conversion from H4R3(Mel) to H4R3(Me2). Dose-response curves were generated by plotting percent effect (% product conversion; Y-axis) vs. Log 10 compound concentrations (X-axis). EC50 values were determined by non-linear regression according to models for either sigmoidal (4 parameters) or biphasic (7 parameters) dose-response curves.

[2] = tested on: symmetric dimethylation of arginine (SDMA) of PRMT5 substrates in MCF-7 cells; experiment: PRMT5 Cell Target Engagement (TE) Assay; type: cell-based; conditions: Homo sapiens, MCF7, 72 h, treated for 3 days, nuclear SDMA by high content imaging, top concentration 10000 nM
Source text: The PRMT5 TE assay is a biomarker assay for identifying compounds that inhibit symmetric dimethylation of arginine (SDMA) of PRMT5 substrates. The following substrates have been reported for PRMT5: histone H2A and H4 R3, Histone H3 R2, Histone H3 R8, spliceosome Sm proteins, ribosomal protein RPS10, p53, FEN1, nudeoplasmin, nucleolin, EGFR and EBNA. The assay will focus on detecting symmetrically dimethylated nuclear proteins using high content imaging technology. Detection of the expression of symmetrically dimethylated nuclear proteins is through a mixture of primary rabbit monoclonal antibodies to SDMA (CST 13222), which in turn recognized by an Alexafluor 488 dye-conjugated anti-rabbit IgG secondary antibody. The IN Cell Analyzer 2200 or Opera-Phenix measures nuclear Alexafluor 488 fluorescent dye intensity that is directly related to the level of expression of symmetrically dimethylated nuclear proteins at the single cell level. Nuclear AF488 dye intensities are compared to the mean value for DMSO treated cells (MIN) to report percent of inhibition for each compound-treated well.
In this assay, the cell potency (EC50) of each compound was determined from a ten point (1:3 serial dilution; top compound concentration of 10000 nM) titration curve using the following outlined procedure. Each well of a BD falcon collagen coated black/clear bottom 384-well plate was seeded with 4000 MCF-7 cells in 30 μl media and allowed to attach for 5 h. Media is ATCC-formulated Eagle's Minimum Essential Medium, Catalog No. 30-2003. To make the complete growth medium, the following components were added to the base medium: 0.01 mg/ml human recombinant insulin; fetal bovine serum to a final concentration of 10%. Additional 30 μl of media containing 2× compounds were added to each well. Cells were treated for 3 days in 37° C. CO2 incubator. On day 3, cells were fixed with Cytofix, permeablized with 0.4% Triton-X-100/Cytofix, and washed with D-PBS without Ca/Mg. Cells were blocked with Licor Odessey blocking reagent for 1 h at room temperature, followed by incubation with anti-SDMA (1:1000) antibody at 4° C. overnight. 1° antibody was removed, followed by three washings with DPBS without Ca/Mg and 0.05% Tween20. Hoechst (5 μg/ml), Cell Mask deep stain (1:2000) and Alexa488-conjugated goat anti-rabbit IgG (2 μg/mL) was added for 1 hour at room temperature. A final washing step (three washes) was performed before sealing plate for imaging on In Cell Analyzer 2200 or Opera-Phenix. Images from analyzer were uploaded to Columbus (at WP or BOS) for image analysis. IC50 values were determined by 4 parameters robust fit of percent fluorescence units vs. (Logic) compound concentrations.

[3] = second EC50 of 7 parameters biphasic model, read-out: Enzyme Methylation Assay (EC50_2)
[4] = single EC50 from 4 parameters single site sigmoidal model, or first EC50 of 7 parameters biphasic model, 1.0 nM PRMT5-MEP50, H4R3(Me1) peptide, SAM, read-out: Enzyme Methylation Assay (EC50 or EC50_1)

T1 sequence (O14744 whole entry): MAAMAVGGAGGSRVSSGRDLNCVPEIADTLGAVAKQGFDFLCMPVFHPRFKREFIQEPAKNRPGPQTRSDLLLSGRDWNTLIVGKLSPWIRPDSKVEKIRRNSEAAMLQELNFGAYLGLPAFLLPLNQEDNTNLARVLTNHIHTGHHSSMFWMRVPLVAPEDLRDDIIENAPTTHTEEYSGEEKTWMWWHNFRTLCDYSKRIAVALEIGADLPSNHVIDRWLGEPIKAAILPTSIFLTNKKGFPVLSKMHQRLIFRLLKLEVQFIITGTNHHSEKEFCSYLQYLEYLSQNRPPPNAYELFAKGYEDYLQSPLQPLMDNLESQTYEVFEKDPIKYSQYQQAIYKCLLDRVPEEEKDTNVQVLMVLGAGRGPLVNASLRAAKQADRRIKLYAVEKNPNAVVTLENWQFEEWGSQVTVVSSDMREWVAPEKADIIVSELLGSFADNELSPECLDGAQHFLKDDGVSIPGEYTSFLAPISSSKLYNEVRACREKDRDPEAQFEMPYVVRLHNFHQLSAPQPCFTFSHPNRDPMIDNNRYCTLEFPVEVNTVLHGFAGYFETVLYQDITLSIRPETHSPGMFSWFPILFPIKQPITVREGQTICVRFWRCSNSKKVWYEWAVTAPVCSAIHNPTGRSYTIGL
T1 sequence (Q9BQA1 whole entry partner): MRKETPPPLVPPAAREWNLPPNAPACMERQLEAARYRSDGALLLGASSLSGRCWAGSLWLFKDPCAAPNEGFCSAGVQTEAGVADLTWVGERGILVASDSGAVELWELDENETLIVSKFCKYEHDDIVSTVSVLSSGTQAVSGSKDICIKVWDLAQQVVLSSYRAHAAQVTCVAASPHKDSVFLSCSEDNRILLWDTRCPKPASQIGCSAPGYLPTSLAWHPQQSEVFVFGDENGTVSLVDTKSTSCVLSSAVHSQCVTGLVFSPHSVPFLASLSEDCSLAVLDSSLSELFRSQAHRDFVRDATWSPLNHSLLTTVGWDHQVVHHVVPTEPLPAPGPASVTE

SMILES | pEC50 [1, 3] | pEC50 [1, 4] | pEC50 [2]
Nc1nc2cc(CC[C@H]3S[C@@H](n4cc(F)c5c(N)ncnc54)[C@H](O)[C@@H]3O)ccc2cc1Br [Example 37, (2R,3S,4R,5R)-2-(2-(2-amino-3-bromoquinolin-7-yl)ethyl)-5-(4-amino-5-fluoro-7H-pyrrolo[2,3-d]pyrimidin-7-yl)tetrahydrothiophene-3,4-diol] | 7.79 | 9.40 | 8.02
Cc1nc(N)nc2c1ccn2[C@@H]1S[C@H](CCc2ccc3cc(Br)c(N)nc3c2)[C@@H](O)[C@H]1O [Example 38, (2R,3S,4R,5R)-2-(2-(2-amino-3-bromoquinolin-7-yl)ethyl)-5-(2-amino-4-methyl-7H-pyrrolo[2,3-d]pyrimidin-7-yl)tetrahydrothiophene-3,4-diol] | – | 9.30 | 8.14

Other lines, results leading:

pEC50 [1, 3] | pEC50 [1, 4] | pEC50 [2] | SMILES
6.18 | 8.92 | 6.91 | Cc1ncnc2c1ccn2[C@@H]1S[C@@H](CCc2ccc3cc(C(F)F)c(N)nc3c2)[C@@H](O)[C@H]1O [Example 41, (2S,3S,4R,5R)-2-(2-(2-amino-3-(difluoromethyl)quinolin-7-yl)ethyl)-5-(4-methyl-7H-pyrrolo[2,3-d]pyrimidin-7-yl)tetrahydrothiophene-3,4-diol]
– | 9.10 | 8.62 | Nc1nc2cc(CC[C@@H]3S[C@@H](n4ccc5c(N)ncnc54)[C@H](O)[C@@H]3O)ccc2cc1Cl [Example 42, (2S,3S,4R,5R)-2-(2-(2-amino-3-chloroquinolin-7-yl)ethyl)-5-(4-amino-7H-pyrrolo[2,3-d]pyrimidin-7-yl)tetrahydrothiophene-3,4-diol]
– | 9.15 | 8.62 | Nc1nc2cc(CC[C@H]3S[C@@H](n4ccc5c(N)ncnc54)[C@H](O)[C@@H]3O)ccc2cc1Cl [Example 43, (2R,3S,4R,5R)-2-(2-(2-amino-3-chloroquinolin-7-yl)ethyl)-5-(4-amino-7H-pyrrolo[2,3-d]pyrimidin-7-yl)tetrahydrothiophene-3,4-diol]
